Laboratory results as given in US4835189A, “Phenolic thioalkylamides as inhibitors of 5-lipoxygenase” (G. D. Searle & Co., priority 1987, dated 1989).

Molecular target: T1, 5-lipoxygenase (Rattus norvegicus, UniProt P12527)
T1 construct: The 100,000 x g supernatant fraction of Rat Basophilic Leukemia Cell Homogenate (RBL-1) serves as a 5-lipoxygenase enzyme source; endogenous in cells; host or cells: RBL-1 (rat basophilic leukemia) cells, 100,000 x g supernatant of homogenate
T1 sequence (P12527 1-673): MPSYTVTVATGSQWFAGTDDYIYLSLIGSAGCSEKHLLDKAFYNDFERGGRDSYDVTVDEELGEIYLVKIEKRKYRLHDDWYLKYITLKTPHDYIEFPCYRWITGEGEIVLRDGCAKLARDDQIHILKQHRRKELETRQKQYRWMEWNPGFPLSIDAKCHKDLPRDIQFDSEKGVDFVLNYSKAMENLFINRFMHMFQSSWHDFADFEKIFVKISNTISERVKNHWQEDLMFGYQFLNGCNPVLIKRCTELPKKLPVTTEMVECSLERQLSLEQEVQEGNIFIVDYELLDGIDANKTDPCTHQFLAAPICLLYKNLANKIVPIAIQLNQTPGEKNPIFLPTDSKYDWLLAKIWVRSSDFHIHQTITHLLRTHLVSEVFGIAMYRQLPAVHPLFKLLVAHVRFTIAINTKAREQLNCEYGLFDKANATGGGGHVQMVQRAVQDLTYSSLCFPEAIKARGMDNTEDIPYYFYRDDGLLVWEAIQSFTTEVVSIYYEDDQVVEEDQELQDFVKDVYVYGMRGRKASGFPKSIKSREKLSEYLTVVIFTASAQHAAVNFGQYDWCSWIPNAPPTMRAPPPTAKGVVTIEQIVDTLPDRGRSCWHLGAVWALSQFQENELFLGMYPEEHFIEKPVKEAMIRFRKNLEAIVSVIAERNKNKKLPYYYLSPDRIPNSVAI
Experiment: Inhibition of 5-lipoxygenase, in vitro (5-HETE synthesis, RBL-1 homogenate 100,000 x g supernatant)
Type: biochemical
Conditions: RBL-1 100,000 x g supernatant, [1-14C]-arachidonic acid and Ca++
Method: The compounds of the invention are evaluated with respect to 5-lipoxygenaseinhibition according to the following assay procedure.
Inhibition of 5-lipoxygenase, in vitro: anti-inflammatory, anti-allergy activities.
The 100,000 x g supernatant fraction of Rat Basophilic Leukemia Cell Homogenate (RBL-1) serves as a 5-lipoxygenase enzyme source. The enzyme is incubated with [1-^14 C)-arachidonic acid and Ca++ in the presence and absence of test compound. The product of 5-lipoxygenase, 5-hydroxyeicosatetraenoic acid (5-HETE), is separated by thin-layer chromatography and measured by radioactivity. A compound inhibiting 5-HETE synthesis by 30% or more is considered active at that concentration.

IC50	SMILES
560 nM	CC(C)N(Cc1ccccc1)C(=O)CCSc1cc(C(C)(C)C)c(O)c(C(C)(C)C)c1 [Example 4, 3-[[3,5-bis(1,1-dimethylethyl)-4-hydroxylphenyl]thio]-N-(1-methylethyl)-N-(phenylmethyl)propanamide]
1400 nM	CC(C)N(C(=O)CCSc1cc(C(C)(C)C)c(O)c(C(C)(C)C)c1)C(C)C [Example 5, 3-[[3,5-bis(1,1-dimethylethyl)-4-hydroxyphenyl]thio]-N,N-bis(1-methylethyl)propanamide]
